# In patent publication US8598190B2, “3H-imidazo [4, 5-C] pyridine-6-carboxamides as anti-inflammatory agents” (Boehringer Ingelheim International GmbH, priority 2008, dated 2013):
# Target: T1, recombinant human mPGES-1 (Homo sapiens, UniProt O14684)
# T1 construct: made in house; host or cells: Rosetta E. coli (microsomal/membrane fraction)
# T1 sequence (O14684 1-152): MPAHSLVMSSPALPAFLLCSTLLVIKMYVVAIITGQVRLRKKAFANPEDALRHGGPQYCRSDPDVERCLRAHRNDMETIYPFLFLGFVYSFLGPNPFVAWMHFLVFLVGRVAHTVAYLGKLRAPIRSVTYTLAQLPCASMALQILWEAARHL
# Test: mPGES-1 inhibition test (microsomes, HTRF detection of PGE2)
# Assay type: biochemical
# Procedure: Microsomes from Rosetta E. coli bacteria expressing recombinant human mPGES-1 is dissolved in 0.1 M KPi pH 7.4 buffer containing 2.5 mM GSH. 50 μl of the enzyme is subsequently dispensed in a 384-well plate. 0.5 μl of the inhibitor dissolved in DMSO at is thereafter added to each well and incubated for 25 minutes at room temperature.
# Subsequently, 2 μl of PGH2 dissolved in an appropriate solvent is added to each well and after one minute the acidified stop solution containing FeCl2 is added. 4 μl of the total volume is transferred to a separate plate and diluted 750-fold in two separate steps before HTRF detection of PGE2.
# The HTRf detection is performed by the use of a commercially available kit from CisBio essentially according to the manufacturer's protocol. Briefly, 10 μl of the diluted sample is transferred to a white 384-well plate. 5 μl of d2 and 5 μl Eu3+-Cryptate labeled anti-PGE2 is added to each well containing samples by the use of a Multidrop. The plate is covered with a plastic self-adhesive film, centrifuged at 1200 rpm for 1 minute and subsequently stored at +4° C. over night.
# After over night incubation the fluorescence is measured by the use of an appropriate microplate reader. The fluorescence of europium cryptate, and d2 are measured using the following excitation and emission wavelength, europium cryptate: λmax^ex=307 nm, λmax^em=620 nm and d2: λmax^ex=620 nm, λmax^em=665 nm), respectively. The extent of the specific FRET is measured as a ratio of the emission intensity at 665 nm vs. that at 620 nm. A standard curve using synthetic PGE2 is used to quantify the amount of PGE2 in unknown samples.
row,Structure (SMILES),inhibition at 10 µM [%]
1,"CN(C)c1cc(C(F)(F)F)cc(NC(=O)c2cc3[nH]c(Nc4c(Cl)cncc4Cl)nc3cn2)n1 [Example 739, 2-(3,5-Dichloro-pyridin-4-yl-amino)-N-(6-dimethylamino-4-trifluoromethyl-pyridin-2-yl)-1H-imidazo[4,5-c]pyridine-6-carboxamide]",100
2,"Cn1c(Nc2c(Cl)cncc2Cl)nc2cc(C(=O)N[C@H]3CC[C@H](C(F)(F)F)CC3)ncc21 [Example 515, 2-(3,5-Dichloropyridin-4-ylamino)-3-methyl-N-((1r,4r)-4-trifluoromethyl-cyclohexyl)-3H-imidazo[4,5-c]pyridine-6-carboxamide]",100
3,"CC(C)(C)c1ccnc(NC(=O)c2cc3[nH]c(Nc4c(Cl)cccc4Cl)nc3cn2)c1 [Example 396, N-(4-tert.-Butyl-pyridin-2-yl)-2-(2,6-dichlorophenylamino)-1H-imidazo[4,5-c]pyridine-6-carboxamide]",100
4,"CC1(C)CCC(NC(=O)c2cc3nc(Nc4c(Cl)cccc4Cl)[nH]c3cn2)CC1 [Example 83, 2-(2,6-Dichloro-phenylamino)-3H-imidazo[4,5-c]pyridine-6-carboxylic acid (4,4-dimethyl-cyclohexyl)-amide]",100
5,"O=C(Nc1cc(C(F)(F)F)ccn1)c1cc2[nH]c(Nc3c(F)cc(F)cc3Cl)nc2cn1 [Example 731, 2-(2-Chloro-4,6-difluoro-phenylamino)-N-(4-trifluoromethyl-pyridin-2-yl)-1H-imidazo[4,5-c]pyridine-6-carboxamide]",100
6,"Cn1c(Nc2c(F)cccc2Cl)nc2cc(C(=O)NCc3ncccc3C3CC3)ncc21 [Example 522, 2-(2-Chloro-6-fluorophenylamino)-N-((3-cyclopropylpyridin-2-yl)-methyl)-3-methyl-3H-imidazo[4,5-c]pyridine-6-carboxamide]",100
7,"O=C(NCc1ncccc1C(F)(F)F)c1cc2[nH]c(Nc3c(Cl)cccc3Cl)nc2cn1 [Example 509, 2-(2,6-Dichlorophenylamino)-N-((3-trifluoromethyl-pyridin-2-yl)methyl)-1H-imidazo[4,5-c]pyridine-6-carboxamide]",97
8,"O=C(Nc1cc(C(F)(F)F)ccn1)c1cc2[nH]c(Nc3c(Cl)cncc3Cl)nc2cn1 [Example 366, 2-(3,5-Dichloropyridin-4-ylamino)-N-(4-trifluoromethyl-pyridin-2-yl)-1H-imidazo[4,5-c]pyridine-6-carboxamide]",100
9,"Cn1c(Nc2c(Cl)cccc2Cl)nc2cc(C(=O)NCc3ncccc3C(F)(F)F)ncc21 [Example 528, 2-(2,6-Dichlorophenylamino)-3-methyl-N-((3-trifluoromethyl-pyridin-2-yl)-methyl)-3H-imidazo[4,5-c]pyridine-6-carboxamide]",96
10,"Cn1c(Nc2c(F)cccc2Cl)nc2cc(C(=O)NCc3ncccc3C(F)(F)F)ncc21 [Example 504, 2-(2-Chloro-6-fluorophenylamino)-3-methyl-N-((3-trifluoromethyl-pyridin-2-yl)-methyl)-3H-imidazo[4,5-c]pyridine-6-carboxamide]",100
11,"O=C(Nc1ccc(Br)cc1)c1cc2[nH]c(Nc3c(Cl)cncc3Cl)nc2cn1 [Example 732, 2-(3,5-Dichloro-pyridin-4-yl-amino)-N-(4-bromo-phenyl)-1H-imidazo[4,5-c]pyridine-6-carboxamide]",100
12,"O=C(NCC(F)(F)C(F)(F)C(F)(F)C(F)(F)C(F)(F)C(F)(F)C(F)(F)F)c1cc2[nH]c(Nc3c(Cl)cccc3Cl)nc2cn1 [Example 721, 2-(2,6-Dichlorophenylamino)-N-(2,2,3,3,4,4,5,5,6,6,7,7,8,8,8-pentadecafluoro-octyl)-1H-imidazo[4,5-c]pyridine-6-carboxamide]",100
13,"Cn1c(Nc2c(Cl)cccc2Cl)nc2cc(C(=O)N[C@H]3CC[C@H](C(F)(F)F)CC3)ncc21 [Example 424, 2-(2,6-Dichlorophenylamino)-3-methyl-N-((1r,4r)-4-trifluoromethyl-cyclohexyl)-3H-imidazo[4,5-c]pyridine-6-carboxamide]",100
14,"Cn1c(Nc2c(F)cccc2Cl)nc2cc(C(=O)Nc3ccc(Br)cc3)ncc21 [Example 361, N-(4-Bromophenyl)-2-(2-chloro-6-fluoro-phenylamino)-3-methyl-3H-imidazo[4,5-c]pyridine-6-carboxamide]",100

# Now from value to compound:
row,inhibition at 10 µM [%],Structure (SMILES)
1,100,"O=C(Nc1cc(C(F)(F)F)ccn1)c1cc2[nH]c(Nc3c(Cl)cc(F)cc3Cl)nc2cn1 [Example 730, 2-(2,6-Dichloro-4-fluoro-phenylamino)-N-(4-trifluoromethyl-pyridin-2-yl)-1H-imidazo[4,5-c]pyridine-6-carboxamide]"
2,100,"Cn1c(Nc2c(Cl)cccc2Cl)nc2cc(C(=O)NC3CCCCC3)ncc21 [Example 487, N-Cyclohexyl-2-(2,6-dichlorophenylamino)-3-methyl-3H-imidazo[4,5-c]pyridine-6-carboxamide]"
3,97,"CC(C)c1ccc(NC(=O)c2cc3[nH]c(Nc4c(Cl)cncc4Cl)nc3cn2)nc1 [Example 737, 2-(3,5-Dichloro-pyridin-4-yl-amino)-N-(5-isopropyl-pyridin-2-yl)-1H-imidazo[4,5-c]pyridine-6-carboxamide]"
4,100,"Cc1cc(C(F)(F)F)cc(NC(=O)c2cc3[nH]c(Nc4c(Cl)cccc4Cl)nc3cn2)n1 [Example 723, 2-(2,6-Dichlorophenylamino)-N-(6-methyl-4-trifluoromethyl-pyridin-2-yl)-1H-imidazo[4,5-c]pyridine-6-carboxamide]"
5,100,"O=C(Nc1cc(C2CCC2)ccn1)c1cc2[nH]c(Nc3c(Cl)cncc3Cl)nc2cn1 [Example 738, 2-(3,5-Dichloro-pyridin-4-yl-amino)-N-(4-cyclobutyl-pyridin-2-yl)-1H-imidazo[4,5-c]pyridine-6-carboxamide]"
6,100,"O=C(Nc1cc(C(F)(F)F)ccn1)c1cc2[nH]c(Nc3c(Cl)cccc3Cl)nc2cn1 [Example 414, 2-(2,6-Dichlorophenylamino)-N-(4-trifluoromethyl-pyridin-2-yl)-1H-imidazo[4,5-c]pyridine-6-carboxamide]"
7,100,"Cn1c(Nc2c(Cl)cccc2Cl)nc2cc(C(=O)NC3CCC(C)(C)CC3)ncc21 [Example 406, 2-(2,6-Dichlorophenylamino)-N-(4,4-dimethylcyclohexyl)-3-methyl-3H-imidazo[4,5-c]pyridine-6-carboxamide]"
8,100,"O=C(Nc1ccc(C(F)(F)F)cn1)c1cc2[nH]c(Nc3c(Cl)cccc3Cl)nc2cn1 [Example 720, 2-(2,6-Dichlorophenylamino)-N-(5-trifluoromethyl-pyridin-2-yl)-1H-imidazo[4,5-c]pyridine-6-carboxamide]"
9,98,"O=C(Nc1cc(C(F)(F)F)ccn1)c1cc2[nH]c(Nc3c(Cl)cccc3C(F)(F)F)nc2cn1 [Example 728, 2-(2-Chloro-6-trifluoromethyl-phenylamino)-N-(4-trifluoromethyl-pyridin-2-yl)-1H-imidazo[4,5-c]pyridine-6-carboxamide]"
10,100,"Cn1c(Nc2c(Cl)cccc2Cl)nc2cc(C(=O)Nc3ccc(Br)cc3)ncc21 [Example 365, N-(4-Bromophenyl)-2-(2,6-dichlorophenylamino)-3-methyl-3H-imidazo[4,5-c]pyridine-6-carboxamide]"
11,100,"O=C(Nc1ccc(Br)cc1)c1cc2[nH]c(Nc3c(Cl)cccc3Cl)nc2cn1 [Example 722, 2-(2,6-Dichlorophenylamino)-N-(4-bromo-phenyl)-1H-imidazo[4,5-c]pyridine-6-carboxamide]"
12,97,"O=C(NCc1ccccc1C(F)(F)F)c1cc2[nH]c(Nc3c(Cl)cccc3Cl)nc2cn1 [Example 477, 2-(2,6-Dichlorophenylamino)-N-(2-trifluoromethyl-benzyl)-1H-imidazo[4,5-c]pyridine-6-carboxamide]"
13,98,"O=C(Nc1cc(C(F)(F)F)cc(Cl)n1)c1cc2[nH]c(Nc3c(Cl)cncc3Cl)nc2cn1 [Example 736, 2-(3,5-Dichloro-pyridin-4-yl-amino)-N-(6-chloro-4-trifluoromethyl-pyridin-2-yl)-1H-imidazo[4,5-c]pyridine-6-carboxamide]"
14,100,"Cc1cc(NC(=O)c2cc3[nH]c(Nc4c(Cl)cccc4Cl)nc3cn2)ncc1F [Example 719, 2-(2,6-Dichlorophenylamino)-N-(5-fluoro-4-methyl-pyridin-2-yl)-1H-imidazo[4,5-c]pyridine-6-carboxamide]"
15,98,"O=C(Nc1cc(C2CC2)ccn1)c1cc2[nH]c(Nc3c(Cl)cccc3Cl)nc2cn1 [Example 445, N-(4-Cyclopropylpyridin-2-yl)-2-(2,6-dichlorophenylamino)-1H-imidazo[4,5-c]-pyridine-6-carboxamide]"
